{"source": "PubChem BioAssay AID1259407", "about": "(Chemical Carcinogenesis Research Information System (CCRIS), 2018)", "tested_on": "CCRIS mutagenicity, Ames/micronucleus/aberration tests", "test": "CCRIS mutagenicity studies", "key": {"[1]": {"details": "Test System: AMES SALMONELLA TYPHIMURIUM, Strain/Indicator: TA98, Metabolic Activation: NONE, Method: STANDARD PLATE"}, "[2]": {"details": "Test System: AMES SALMONELLA TYPHIMURIUM, Strain/Indicator: TA98, Metabolic Activation: RAT, LIVER, S-9, AROCLOR 1254, Method: STANDARD PLATE"}, "[3]": {"details": "Test System: AMES SALMONELLA TYPHIMURIUM, Strain/Indicator: TA100, Metabolic Activation: NONE, Method: STANDARD PLATE"}, "[4]": {"details": "Test System: AMES SALMONELLA TYPHIMURIUM, Strain/Indicator: TA100, Metabolic Activation: RAT, LIVER, S-9, AROCLOR 1254, Method: STANDARD PLATE"}, "[5]": {"details": "Test System: AMES SALMONELLA TYPHIMURIUM, Strain/Indicator: TA102, Metabolic Activation: NONE, Method: PREINCUBATION"}, "[6]": {"details": "Test System: AMES SALMONELLA TYPHIMURIUM, Strain/Indicator: TA102, Metabolic Activation: NONE, Method: STANDARD PLATE"}, "[7]": {"details": "Test System: AMES SALMONELLA TYPHIMURIUM, Strain/Indicator: TA102, Metabolic Activation: RAT, LIVER, S-9, AROCLOR 1254, Method: STANDARD PLATE"}}, "note": "Activity calls are given as the source filed them. No rule for the calls is given here."}
{"molecule": "O=C([O-])/C=C/C(=O)[O-].[Fe+2]", "values": [{"measurement": "mutagenic call", "setting": "Test System: AMES SALMONELLA TYPHIMURIUM, Strain/Indicator: TA98, Metabolic Activation: HAMSTER, LIVER, S-9, AROCLOR 1254, Method: STANDARD PLATE", "result": "active; positive"}, {"measurement": "mutagenic call", "setting": "[1]", "result": "inactive; negative"}, {"measurement": "mutagenic call", "setting": "[2]", "result": "active; positive"}, {"measurement": "mutagenic call", "setting": "Test System: AMES SALMONELLA TYPHIMURIUM, Strain/Indicator: TA100, Metabolic Activation: HAMSTER, LIVER, S-9, AROCLOR 1254, Method: STANDARD PLATE", "result": "inactive; negative"}, {"measurement": "mutagenic call", "setting": "[3]", "result": "inactive; negative"}, {"measurement": "mutagenic call", "setting": "[4]", "result": "inactive; negative"}, {"measurement": "mutagenic call", "setting": "Test System: AMES SALMONELLA TYPHIMURIUM, Strain/Indicator: TA102, Metabolic Activation: HAMSTER, LIVER, S-9, AROCLOR 1254, Method: STANDARD PLATE", "result": "inactive; negative"}, {"measurement": "mutagenic call", "setting": "[5]", "result": "inactive; negative"}, {"measurement": "mutagenic call", "setting": "[6]", "result": "inactive; negative"}, {"measurement": "mutagenic call", "setting": "[7]", "result": "inactive; negative"}, {"measurement": "mutagenic call", "setting": "Test System: MOUSE LYMPHOMA, Strain/Indicator: L5178Y (TK+/TK-), Metabolic Activation: NONE, Method: SUSPENSION/PLATE", "result": "active; positive. reevaluation of results: positive"}, {"measurement": "mutagenic call", "setting": "Test System: MOUSE LYMPHOMA, Strain/Indicator: L5178Y (TK+/TK-), Metabolic Activation: RAT, LIVER, S-9, AROCLOR 1254, Method: SUSPENSION/PLATE", "result": "inactive; negative. reevaluation of results: negative"}]}
{"molecule": "Cc1c([N+](=O)[O-])cnc2c1nc1c(C)cccn12", "values": [{"measurement": "mutagenic call", "setting": "[1]", "result": "active; positive"}, {"measurement": "mutagenic call", "setting": "Test System: AMES SALMONELLA TYPHIMURIUM, Strain/Indicator: TA98, Metabolic Activation: RAT, LIVER, CYTOSOL, AROCLOR 1254, Method: STANDARD PLATE", "result": "active; positive"}, {"measurement": "mutagenic call", "setting": "Test System: AMES SALMONELLA TYPHIMURIUM, Strain/Indicator: TA98, Metabolic Activation: RAT, LIVER, MICROSOMES, AROCLOR 1254, Method: STANDARD PLATE", "result": "active; positive"}, {"measurement": "mutagenic call", "setting": "[2]", "result": "active; positive"}]}
{"molecule": "Cc1nnc2n1-c1ccc(Cl)cc1C(c1ccccc1Cl)=NC2", "values": [{"measurement": "mutagenic call", "setting": "[1]", "result": "inactive; negative"}, {"measurement": "mutagenic call", "setting": "[2]", "result": "inactive; negative"}, {"measurement": "mutagenic call", "setting": "[3]", "result": "inactive; negative"}, {"measurement": "mutagenic call", "setting": "[4]", "result": "inactive; negative"}, {"measurement": "mutagenic call", "setting": "[6]", "result": "inactive; negative"}, {"measurement": "mutagenic call", "setting": "[7]", "result": "inactive; negative"}, {"measurement": "mutagenic call", "setting": "Test System: AMES SALMONELLA TYPHIMURIUM, Strain/Indicator: TA1535, Metabolic Activation: NONE, Method: STANDARD PLATE", "result": "inactive; negative"}, {"measurement": "mutagenic call", "setting": "Test System: AMES SALMONELLA TYPHIMURIUM, Strain/Indicator: TA1535, Metabolic Activation: RAT, LIVER, S-9, AROCLOR 1254, Method: STANDARD PLATE", "result": "inactive; negative"}, {"measurement": "mutagenic call", "setting": "Test System: AMES SALMONELLA TYPHIMURIUM, Strain/Indicator: TA1537, Metabolic Activation: NONE, Method: STANDARD PLATE", "result": "inactive; negative"}, {"measurement": "mutagenic call", "setting": "Test System: AMES SALMONELLA TYPHIMURIUM, Strain/Indicator: TA1537, Metabolic Activation: RAT, LIVER, S-9, AROCLOR 1254, Method: STANDARD PLATE", "result": "inactive; negative"}, {"measurement": "mutagenic call", "setting": "Test System: E. COLI, Strain/Indicator: WP2 UVRA, Metabolic Activation: NONE, Method: STANDARD PLATE", "result": "inactive; negative"}, {"measurement": "mutagenic call", "setting": "Test System: E. COLI, Strain/Indicator: WP2 UVRA, Metabolic Activation: RAT, LIVER, S-9, AROCLOR 1254, Method: STANDARD PLATE", "result": "inactive; negative"}]}
{"molecule": "O=c1ccc2ccc3occc3c2o1", "values": [{"measurement": "mutagenic call", "setting": "[1]", "result": "inactive; negative"}, {"measurement": "mutagenic call", "setting": "Test System: AMES SALMONELLA TYPHIMURIUM, Strain/Indicator: TA98, Metabolic Activation: RAT, LIVER, S-9, PHENOBARBITAL, Method: STANDARD PLATE", "result": "inactive; negative"}]}
{"molecule": "CC(C)(C)c1ccc(O)c(O)c1", "values": [{"measurement": "mutagenic call", "setting": "Test System: AMES SALMONELLA TYPHIMURIUM, Strain/Indicator: TA97, Metabolic Activation: HAMSTER LIVER S-9, AROCLOR 1254 (10% OR 30%), Method: PREINCUBATION", "result": "inactive; negative"}, {"measurement": "mutagenic call", "setting": "Test System: AMES SALMONELLA TYPHIMURIUM, Strain/Indicator: TA97, Metabolic Activation: NONE, Method: PREINCUBATION", "result": "inactive; negative"}, {"measurement": "mutagenic call", "setting": "Test System: AMES SALMONELLA TYPHIMURIUM, Strain/Indicator: TA97, Metabolic Activation: RAT LIVER S-9, AROCLOR 1254 (10% OR 30%), Method: PREINCUBATION", "result": "inactive; negative"}, {"measurement": "mutagenic call", "setting": "Test System: AMES SALMONELLA TYPHIMURIUM, Strain/Indicator: TA98, Metabolic Activation: HAMSTER LIVER S-9, AROCLOR 1254 (10% OR 30%), Method: PREINCUBATION", "result": "inactive; negative"}, {"measurement": "mutagenic call", "setting": "Test System: AMES SALMONELLA TYPHIMURIUM, Strain/Indicator: TA98, Metabolic Activation: NONE, Method: PREINCUBATION", "result": "inactive; negative"}, {"measurement": "mutagenic call", "setting": "Test System: AMES SALMONELLA TYPHIMURIUM, Strain/Indicator: TA98, Metabolic Activation: RAT LIVER S-9, AROCLOR 1254 (10% OR 30%), Method: PREINCUBATION", "result": "inactive; negative"}, {"measurement": "mutagenic call", "setting": "Test System: AMES SALMONELLA TYPHIMURIUM, Strain/Indicator: TA100, Metabolic Activation: HAMSTER LIVER S-9, AROCLOR 1254 (10% OR 30%), Method: PREINCUBATION", "result": "inactive; negative"}, {"measurement": "mutagenic call", "setting": "Test System: AMES SALMONELLA TYPHIMURIUM, Strain/Indicator: TA100, Metabolic Activation: NONE, Method: PREINCUBATION", "result": "inactive; negative"}, {"measurement": "mutagenic call", "setting": "Test System: AMES SALMONELLA TYPHIMURIUM, Strain/Indicator: TA100, Metabolic Activation: RAT LIVER S-9, AROCLOR 1254 (10% OR 30%), Method: PREINCUBATION", "result": "inactive; negative"}, {"measurement": "mutagenic call", "setting": "Test System: AMES SALMONELLA TYPHIMURIUM, Strain/Indicator: TA102, Metabolic Activation: HAMSTER LIVER S-9, AROCLOR 1254 (10% OR 30%), Method: PREINCUBATION", "result": "inactive; negative"}, {"measurement": "mutagenic call", "setting": "[5]", "result": "inactive; negative"}, {"measurement": "mutagenic call", "setting": "Test System: AMES SALMONELLA TYPHIMURIUM, Strain/Indicator: TA102, Metabolic Activation: RAT LIVER S-9, AROCLOR 1254 (10% OR 30%), Method: PREINCUBATION", "result": "inactive; negative"}, {"measurement": "mutagenic call", "setting": "Test System: AMES SALMONELLA TYPHIMURIUM, Strain/Indicator: TA104, Metabolic Activation: HAMSTER LIVER S-9, AROCLOR 1254 (10% OR 30%), Method: PREINCUBATION", "result": "inactive; negative"}, {"measurement": "mutagenic call", "setting": "Test System: AMES SALMONELLA TYPHIMURIUM, Strain/Indicator: TA104, Metabolic Activation: NONE, Method: PREINCUBATION", "result": "inactive; negative"}, {"measurement": "mutagenic call", "setting": "Test System: AMES SALMONELLA TYPHIMURIUM, Strain/Indicator: TA104, Metabolic Activation: RAT LIVER S-9, AROCLOR 1254 (10% OR 30%), Method: PREINCUBATION", "result": "inactive; negative"}, {"measurement": "mutagenic call", "setting": "Test System: AMES SALMONELLA TYPHIMURIUM, Strain/Indicator: TA1535, Metabolic Activation: HAMSTER LIVER S-9, AROCLOR 1254 (10% OR 30%), Method: PREINCUBATION", "result": "inactive; negative"}, {"measurement": "mutagenic call", "setting": "Test System: AMES SALMONELLA TYPHIMURIUM, Strain/Indicator: TA1535, Metabolic Activation: NONE, Method: PREINCUBATION", "result": "inactive; negative"}, {"measurement": "mutagenic call", "setting": "Test System: AMES SALMONELLA TYPHIMURIUM, Strain/Indicator: TA1535, Metabolic Activation: RAT LIVER S-9, AROCLOR 1254 (10% OR 30%), Method: PREINCUBATION", "result": "inactive; negative"}]}
